Tests used:
Format in all cases: physicochemical
[1] = Example 2: dissolved concentration after sonication at 40° C., then stirring at 5° C. for 20 hours; details: sonicated at 40° C., stirred at 5° C.
Protocol: L-leucovorin calcium (Merck) or racemic leucovorin calcium (USP) was added to water or aqueous sodium chloride (0.83%) and sonicated at 40° C. to dissolve the L-leucovorin calcium or racemic leucovorin calcium. The solutions were then stirred at 5° C. for 20 hours. The concentration of dissolved L-leucovorin calcium or racemic leucovorin calcium was determined at 2 hours and 20 hours after stirring began.

[2] = Example 5: dissolved concentration after sonication at 40° C. for about half an hour, then stirring at 25° C. for 20 hours; details: sonicated at 40° C. about half an hour, stirred at 25° C.
Protocol: L-leucovorin calcium (Merck) or racemic leucovorin calcium (USP) was added to water or aqueous sodium chloride (0.83%) and sonicated at 40° C. for about half an hour. The mixture was then stirred at 25° C. for 20 hours. The concentration of dissolved L-leucovorin calcium or racemic leucovorin calcium was determined at two hours and 20 hours.

[3] = Example 6: dissolved concentration after sonication at 40° C. for one hour, stirring at 25° C., nitrogen purge and sealed vial after 2 hours; details: sonicated at 40° C. one hour, stirred at 25° C.
Protocol: (§1) L-leucovorin calcium (Merck) or racemic leucovorin (USP) calcium was added to water or aqueous sodium chloride (0.83%) and sonicated at 40° C. for one hour to dissolve the L-leucovorin calcium or racemic leucovorin calcium. The solutions were then stirred at 25° C. for an additional hour. After 2 hours, the solutions were purged with nitrogen and placed in a sealed vial. The mixtures were then stirred for an additional 18 hours. The concentration of dissolved L-leucovorin calcium or racemic leucovorin calcium was determined at two hours and 20 hours after sonication began.

[4] = Example 3: dissolved concentration after sonication at 40° C., stirring at 5° C., nitrogen purge and sealed vial at 2 hours; details: sonicated at 40° C., stirred at 5° C.
Protocol: as §1, with “C.” for “C. for one hour”, “5°” for “25°”, “15 hours. At” for “an additional hour. After”, “nitrogen gas” for “nitrogen”, “vial.” for “vial. The mixtures were then stirred for an additional 18 hours.”, “15” for “20”

[5] = Example 4: dissolved concentration after 1 hour of sonication, then stirring at 25° C.; details: sonicated 1 hour, stirred at 25° C.
Protocol: L-leucovorin calcium (Merck) or racemic leucovorin calcium (Sigma) was added to water or aqueous sodium chloride (0.83%) and sonicated for 1 hour. The mixture was then stirred for an additional 19 hours 25° C. The concentration of dissolved L-leucovorin calcium or racemic leucovorin calcium was determined at 15 min., 30 min., 1 hour, or 20 hours after stirring began.

[6] = Example 1: dissolved concentration after about one hour of sonication, then stirring at 5° C.; details: sonicated about one hour, stirred at 5° C.
Protocol: L-leucovorin calcium (Merck) or racemic leucovorin calcium (Sigma) was added to water or aqueous sodium chloride (0.83%) and sonicated for about one hour. The mixtures were then stirred for about 20 hours at 5° C. The concentration of dissolved L-leucovorin calcium or racemic leucovorin calcium was determined at 15 min., 30 min., 1 hour, and 20 hours after sonication began.

Row | Assay (concentration of dissolved compound) ([1]; H2O, 20 hrs) [mg/mL] | Assay (concentration of dissolved compound) ([1]; NaCl (0.83%), 20 hrs) [mg/mL] | Assay (concentration of dissolved compound) ([2]; H2O, 20 hrs) [mg/mL] | Assay (concentration of dissolved compound) ([2]; NaCl (0.83%), 20 hrs) [mg/mL] | Assay (concentration of dissolved compound) ([3]; H2O, 2 hrs) [mg/mL] | Assay (concentration of dissolved compound) ([3]; H2O, 20 hrs) [mg/mL] | Assay (concentration of dissolved compound) ([3]; NaCl (0.83%), 2 hrs) [mg/mL] | Assay (concentration of dissolved compound) ([3]; NaCl (0.83%), 20 hrs) [mg/mL] | Assay (concentration of dissolved compound) ([4]; H2O, 2 hrs) [mg/mL] | Assay (concentration of dissolved compound) ([4]; H2O, 15 hrs) [mg/mL] | Assay (concentration of dissolved compound) ([4]; NaCl (0.83%), 2 hrs) [mg/mL] | Assay (concentration of dissolved compound) ([4]; NaCl (0.83%), 15 hrs) [mg/mL] | Assay (concentration of dissolved compound) ([5]; H2O, 15 min.) [mg/mL] | Assay (concentration of dissolved compound) ([5]; H2O, 30 min.) [mg/mL] | Assay (concentration of dissolved compound) ([5]; H2O, 1 hr) [mg/mL] | Assay (concentration of dissolved compound) ([5]; H2O, 20 hrs) [mg/mL] | Assay (concentration of dissolved compound) ([5]; NaCl (0.83%), 15 min.) [mg/mL] | Assay (concentration of dissolved compound) ([5]; NaCl (0.83%), 30 min.) [mg/mL] | Assay (concentration of dissolved compound) ([5]; NaCl (0.83%), 1 hr) [mg/mL] | Assay (concentration of dissolved compound) ([5]; NaCl (0.83%), 20 hrs) [mg/mL] | SMILES | further results
1 | 4.2 | 7.2 | 13.4 | 17.4 | 10.1 | 10.8 | 16.1 | 17.1 | 3.6 | 3.8 | 8.4 | 8.6 | – | – | – | – | – | – | – | – | Nc1nc(=O)c2c([nH]1)NCC(CNc1ccc(C(=O)N[C@@H](CCC(=O)[O-])C(=O)[O-])cc1)N2C=O.[Ca+2] (mixture of isomers) [USP Leucovorin Calcium, racemic leucovorin calcium] | –
2 | 26.2 | 39.6 | 31.1 | 42.1 | 40.4 | 42.3 | 49.2 | 53.1 | 40.4 | 21.2 | 49.2 | 35.6 | 14.9 | 15.1 | 16.1 | 23.6 | 20.2 | 20.4 | 21.6 | 32.4 | Nc1nc(=O)c2c([nH]1)NCC(CNc1ccc(C(=O)NC(CCC(=O)O)C(=O)O)cc1)N2C=O [L-Leucovorin, L-leucovorin calcium] | Assay (concentration of dissolved compound) ([1]; H2O, 2 hrs): 31.9 mg/mL; Assay (concentration of dissolved compound) ([1]; NaCl (0.83%), 2 hrs): 42.3 mg/mL; Assay (concentration of dissolved compound) ([2]; H2O, 2 hrs): 31.9 mg/mL; Assay (concentration of dissolved compound) ([2]; NaCl (0.83%), 2 hrs): 42.3 mg/mL; Assay (concentration of dissolved compound) ([6]; H2O, 15 min.): 7.5 mg/mL; Assay (concentration of dissolved compound) ([6]; H2O, 30 min.): 8.4 mg/mL; Assay (concentration of dissolved compound) ([6]; H2O, 1 hr): 8.0 mg/mL; Assay (concentration of dissolved compound) ([6]; H2O, 20 hrs): 11.9 mg/mL; Assay (concentration of dissolved compound) ([6]; NaCl (0.83%), 15 min.): 9.6 mg/mL; Assay (concentration of dissolved compound) ([6]; NaCl (0.83%), 30 min.): 10.0 mg/mL; Assay (concentration of dissolved compound) ([6]; NaCl (0.83%), 1 hr): 13.4 mg/mL; Assay (concentration of dissolved compound) ([6]; NaCl (0.83%), 20 hrs): 17.4 mg/mL
3 | – | – | – | – | – | – | – | – | – | – | – | – | 52.9 | 53.3 | 50.1 | 9.0 | 42.1 | 41.9 | 39.6 | 14.2 | Nc1nc(=O)c2c([nH]1)NCC(CNc1ccc(C(=O)N[C@@H](CCC(=O)[O-])C(=O)[O-])cc1)N2C=O.[Ca+2] (mixture of isomers) [Sigma Leucovorin Calcium, racemic leucovorin calcium] | Assay (concentration of dissolved compound) ([6]; H2O, 15 min.): 16.7 mg/mL; Assay (concentration of dissolved compound) ([6]; H2O, 30 min.): 22.0 mg/mL; Assay (concentration of dissolved compound) ([6]; H2O, 1 hr): 15.8 mg/mL; Assay (concentration of dissolved compound) ([6]; H2O, 20 hrs): 3.3 mg/mL; Assay (concentration of dissolved compound) ([6]; NaCl (0.83%), 15 min.): 22.6 mg/mL; Assay (concentration of dissolved compound) ([6]; NaCl (0.83%), 30 min.): 22.9 mg/mL; Assay (concentration of dissolved compound) ([6]; NaCl (0.83%), 1 hr): 23.2 mg/mL; Assay (concentration of dissolved compound) ([6]; NaCl (0.83%), 20 hrs): 7.4 mg/mL
